“Also recorded” adds a separate entry of the source.
Experiments:
pancreatic β-islet cells = assay: Insulin secretion from isolated mouse pancreatic islets treated with NAADP (radioimmunoassay); type: cell-based, mice
Method: The isolation of pancreatic islets from six, 8-week-old ICR mice (Orientbio Inc., Seongnam-si, Korea) weighing 25-30 g was carried out according to the method of Lacy and Kotianovsky (Diabetes, 16, 35-39, 1967) in the following manner. Mice were sacrificed by cervical dislocation, and the peritoneum was incised. Hank's balanced salt solution (HBSS, Gibco, USA) containing 1 mg/mL of collagenase (Sigma, USA) was infused into the bile duct to inflate the pancreas, and then the pancreas was isolated. The isolated pancreas was incubated at 37° C. for 20 minutes, and then homogeneously agitated. The agitated solution was washed with HBSS to remove acinar cells, and then pancreatic islets of a given size were separated from the solution under stereoscopic binocular microscope. […] The concentration of insulin in the supernatant from which the pancreatic β-islet cells have been removed was measured. The measurement of the insulin concentration was carried out by radioimmunoassay using an insulin measurement kit (Diagnostic Products Corp., USA).
Insulin secretion from the mouse pancreatic β-islet cells after treatment by 0 nM and 50 nM at extracellular glucose concentrations maintained at 2.8 mM and 12 mM was measured, and the measurement results are shown in FIG. 1.

[1] = tested on: type-2 diabetic mice (C57BL/KsJ-db/db Jcl); assay: Glucose tolerance test (blood glucose after glucose load) in type-2 diabetic mice given NAADP by osmotic mini-pump; type: in vivo
Text: Seven-week-old type-2 diabetic mice were divided into a control group (five animals) and test groups and tested using an osmotic mini-pump in the following manner. […] Then, the NAADP solution was infused into the abdominal cavity of the mice according to the method described in the supplier's manual.

[2] = tested on: type-2 diabetic mice (C57BL/KsJ-db/db Jcl); assay: Serum insulin after glucose load in type-2 diabetic mice given NAADP (insulin RIA kit); type: in vivo
Method: The same test method as described in Example 2 was used, and 50 μl of blood was collected from the tail vein just before glucose load. At 30 minutes (showing the highest blood glucose level after glucose load) and at 120 minutes (showing the lowest blood glucose level after glucose load), the same amount of blood was collected and coagulated, and serum was separated from the blood. The separated serum was measured for insulin concentration using an insulin RIA kit (Linco Research Inc., USA).

[3] = tested on: pancreatic islet cells of type-2 diabetic mice; assay: Immunohistochemical (anti-insulin antibody) and hematoxylin-eosin staining of pancreatic islets; type: in vivo; details: 1 mg/kg/day for 3 weeks, FIG. 4
Method: After 120 minutes, the mice were sacrificed by cervical dislocation, and then immediately the peritoneum was incised. Then, the intestinal and pancreatic tissues were collected and fixed in 4% paraformaldehyde solution (solvent-phosphate buffer; pH 7.4; Sigma, USA) for 12 hours or more. Then, the pancreatic tissue was separated from the intestinal or adipose tissue, and the separated tissue was washed three times or more with a fresh fixture and then processed into paraffin-embedded tissue according to a conventional method.
Tissue sections were cut from the paraffin-embedded tissue at 5-μm intervals using a microtome (Shandon, Germany) and applied to slides coated with poly-L-lysine (Sigma, USA) before use in immunohistochemical staining. In order to remove paraffin from the pancreatic tissue-coated slides, sections were deparaffinized with xylene (Junsei, Japan) for 5 minutes to remove paraffin. Then, the sections were hydrated in 100-70% alcohol series and allowed to stand in phosphate buffer (pH 7.4) for 5 minutes. Then, the sections were treated with 3% hydrogen peroxide to remove intrinsic peroxidase, and then allowed to react with anti-insulin antibody (Dako, USA) at 4° C. for 12 hours. Then, the section samples were subjected to immunohistochemical staining with anti-insulin antibody using an immunohistochemical staining kit (A.B.I., Jeonju-si, Korea). […]

[4] = 1 mg/kg/day NAADP by osmotic mini-pump, fasting from 13 hours before testing
[5] = 1 mg/kg/day NAADP by osmotic mini-pump, sera at 0, 30 and 120 min

## nicotinic acid adenine dinucleotide phosphate [NAADP]
Pancreatic β-islet cells; 50 nM NAADP, glucose 12 mM, 37° C., FIG. 1
  insulin secretion from pancreatic β-islet cells: great increase in insulin secretion
Pancreatic β-islet cells; in the presence of glucose
  NAADP concentration essential for stimulating insulin secretion from pancreatic β-islet cells: 5 to 500 nM
[1]; [4]
  time at which blood glucose returned to the fasting blood glucose level after glucose load: 120 min
  time of blood glucose peak after glucose load: 30 min
[1]; 1 mg/kg/day intraperitoneally by osmotic mini-pump, 3 weeks, type-2 diabetic mice, FIG. 2
  blood glucose levels: clear decrease in blood glucose levels; also recorded: clear effect of lowering the blood glucose levels
[2]; [5]
  blood insulin level after the peak, up to 120 minutes after glucose load: maintained at a constant level
  time of blood insulin peak after glucose load: 30 min
[2]; 1 mg/kg/day, at 3 weeks (10-week-old), after glucose load, FIG. 3
  blood insulin concentration: clear increase in blood insulin concentration
[3]
  hematoxylin-eosin staining: capsules covering the pancreatic islets and β-islet cells: clustered together
[3]; compared to control group
  positive response of pancreatic β-islet cells to anti-insulin antibody: clearly increased

Reference: US8133872B2 (Industrial Cooperation Foundation, Chonbuk National …, priority 2008, dated 2012)
